According to patent publication US20230009608A1, “GRK2 INHIBITORS AND USES THEREOF” (Cygnal Therapeutics, Inc., priority 2020, published 2023):
Where two headings read alike, the source gives them in different places.

What was measured:
GRK2 = molecular target: T1, GRK2 (Homo sapiens, UniProt P25098); test: ADPGlo GRK2 Inhibition Assay (Example 8); assay type: biochemical
T1 construct: purchased SignalChem A14-10G
T1 sequence (P25098 1-689): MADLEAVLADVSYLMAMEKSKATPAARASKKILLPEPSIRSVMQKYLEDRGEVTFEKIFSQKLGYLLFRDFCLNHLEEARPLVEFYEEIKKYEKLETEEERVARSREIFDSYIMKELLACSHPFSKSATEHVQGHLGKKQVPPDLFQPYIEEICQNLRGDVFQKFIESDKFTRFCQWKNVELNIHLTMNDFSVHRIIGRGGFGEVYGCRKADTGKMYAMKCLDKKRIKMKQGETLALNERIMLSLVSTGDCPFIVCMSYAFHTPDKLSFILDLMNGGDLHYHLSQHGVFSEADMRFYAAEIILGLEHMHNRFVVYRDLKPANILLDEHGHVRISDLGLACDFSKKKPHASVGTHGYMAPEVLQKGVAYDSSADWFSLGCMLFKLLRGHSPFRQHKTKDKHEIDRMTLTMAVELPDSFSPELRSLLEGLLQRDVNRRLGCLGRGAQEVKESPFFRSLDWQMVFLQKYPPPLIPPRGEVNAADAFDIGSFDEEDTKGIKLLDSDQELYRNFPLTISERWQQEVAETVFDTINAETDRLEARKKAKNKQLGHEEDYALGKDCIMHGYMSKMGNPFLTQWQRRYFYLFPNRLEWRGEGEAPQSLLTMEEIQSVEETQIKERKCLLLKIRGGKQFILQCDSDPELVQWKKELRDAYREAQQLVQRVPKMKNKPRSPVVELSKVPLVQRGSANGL
Summary of the method: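 GRK2 (15 nM 2× enzyme solution) was preincubated 15 min with compound, then reacted 180 min at room temperature with 2× mix of 20 μM ATP plus GRKtide in HEPES pH 7.5, MgCl2, Tween-20, DTT. ADP was detected by ADP-Glo luminescence. Percent inhibition was normalised to enzyme and no-enzyme controls, with dose-response curves from threefold dilutions starting at 100 μM.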

[1] = system: PAXF1657 control empty vector cell line; test: 7-day proliferation assay, PAXF1657 control empty vector cell line (Example 9); assay type: cell-based; details: 168 h; Cell Line: PAXF1657 empty vector (EV) cell line; 7-day; read-out: C: 7-day proliferation assay: IC50 GeoMean
Protocol: In order to identify compounds specific for GRK2, we generated two isogenic cell line pairs of the pancreatic cancer cell line PAXF1657, a pair of cells stably overexpressing GRK2 cDNA or the control empty vector and a cell line pair of PAXF1657 GRK2 knockout clonal cells versus non-targeting control clonal cells.
Proliferation Assay: Cellular anti-proliferative activity of compounds was assessed by using the pancreatic cancer cell line, PAXF1657, stably overexpressing GRK2 cDNA or the control empty vector, as well as the parental urinary bladder cancer cell line, 5637. In addition, we also took advantage of GRK2 knockout cell lines that were generated via CRISPR. Cell lines were seeded into tissue culture treated, white-walled, 96-well plates at a density of 500 cells/well in RPMI1640 media supplemented with 10% H.I. FBS and penicillin/streptomycin. Plates were incubated overnight at 37° C., 5% CO2 to allow cells to adhere to the wells. GRK2 inhibitors were added to the cells using a 10-point dilution series with a final concentration ranging from 30 μM-0.0002 μM in 0.3% DMSO. At the time of compound addition, a set of plates, that were not treated with compounds, were collected and cell viability was measured using CellTiter-Glo (Promega). CellTiter-Glo reagent was added to the designed plates and luminescence was measuring using a Biotek Synergy plate reader. The compound treated cells were incubated for 3 days at 37° C., 5% CO2. The media was then aspirated from each well and replaced with fresh media containing GRK2 inhibitors. The compound treated cells were then incubated for an additional 4 days at 37° C., 5% CO2. Cell viability was assessed and at end of the 7-day compound treatment by CellTiterGlo.

[2] = ADPGlo GRK2 enzyme assay, read-out: A: Enzymatic GRK2: IC50 (nM) (Example 8)
[3] = 7.5 nM GRK2, 10 μM ATP, ADP-Glo, read-out: GRK2 IC50 (nM) (Example 8)

Row | IC50 (GRK2; [2]) [nM] | IC50 (GRK2; [3]) [nM] | IC50 (GRK2; Enzyme Assay A, ADPGlo (Example 8), read-out: A: Enzymatic GRK2: IC50 (nM) (Example 8)) | SMILES | IC50 [1] [nM]
1 | 7.61 | – | – | COc1cccc([C@@H](C)NC(=O)c2cccc(NCc3nnc(-c4ccncc4)n3C)c2)c1 | > 30000
2 | 2.97 | – | – | C[C@H](NC(=O)c1cccc(NCc2nnc(-c3ccncc3)n2C)c1)c1ncccc1Cl | > 1850
3 | 11.4 | – | – | C[C@@H](NC(=O)c1cccc(NCc2nnc(-c3ccncc3)n2C)c1)c1ncccc1Cl | > 4780
4 | 10.2 | – | – | COc1ncc(Br)cc1CNC(=O)c1cccc(NCc2nnc(-c3ccncc3)[nH]2)c1 | 21700
5 | 3.22 | – | – | Cc1ccc(C#N)cc1CNC(=O)c1cccc(NCc2nnc(-c3ccncn3)n2CCO)c1 | > 30000
6 | 4.12 | – | – | COc1ncc(Br)cc1CNC(=O)c1cccc(NCc2nnc(-c3ccncn3)n2CCO)c1 | > 30000
7 | 4.82 | – | – | Cc1ccc(C#N)cc1CNC(=O)c1cccc(NCc2nnc(-c3ccncc3)n2CCO)c1 | > 4600
8 | 7.15 | – | – | COc1ncc(Br)cc1CNC(=O)c1cccc(NCc2nnc(-c3ccncc3)n2CCO)c1 | 15100
9 | 17.5 | – | – | COc1cccc([C@H](C)NC(=O)c2cccc(NCc3nnc(-c4ccncc4)[nH]3)c2)c1 | > 30000
10 | 23 | – | – | Cn1c(CNc2cccc(C(=O)N[C@@H]3CCOc4ccccc43)c2)nnc1-c1ccncn1 | 227
11 | 15 | – | – | Cc1cccnc1[C@H](C)NC(=O)c1cccc(NCc2nnc(-c3ccncn3)n2C)c1 | > 30000
12 | 26 | – | – | Cc1cccnc1[C@@H](C)NC(=O)c1cccc(NCc2nnc(-c3ccncn3)n2C)c1 | 3790
13 | 21 | – | – | CN1CC[C@@H](NC(=O)c2cccc(NCc3nnc(-c4ccncn4)n3C)c2)c2ccccc21 | > 30000
14 | 66 | – | – | Cn1c(CNc2cccc(C(=O)N[C@H]3COCc4ccccc43)c2)nnc1-c1ccncn1 | > 11800
15 | 35.4 | – | – | Cn1c(CNc2cccc(C(=O)NC3COc4cc(F)ccc43)c2)nnc1-c1ccncn1 (centres unmarked) | 547
16 | 20 | – | – | COc1ccc(F)c(CNC(=O)c2cccc(NCc3nnc(-c4ccncn4)n3C)c2)c1 | 917
17 | 12 | – | – | C#Cc1ccc(CNC(=O)c2cccc(NCc3nnc(-c4ccncn4)n3C)c2)c(F)c1 | 413
18 | 18.2 | – | – | Cn1c(CNc2cccc(C(=O)NC3CCS(=O)(=O)c4ccccc43)c2)nnc1-c1ccncn1 (centres unmarked) | 2790
19 | 63.5 | – | – | CN1Cc2ccccc2C(NC(=O)c2cccc(NCc3nnc(-c4ccncn4)n3C)c2)C1=O (centres unmarked) | > 1900
20 | 9.78 | – | – | Cn1c(CNc2cccc(C(=O)NCc3cccc4c3NC(=O)CO4)c2)nnc1-c1ccncn1 | 2990

Row | IC50 (GRK2; [2]) [nM] | IC50 (GRK2; [3]) [nM] | IC50 (GRK2; Enzyme Assay A, ADPGlo (Example 8), read-out: A: Enzymatic GRK2: IC50 (nM) (Example 8)) | SMILES | IC50 [1] [nM]
21 | 65.4 | – | – | Cn1c(CNc2cccc(C(=O)NC3CCS(=O)(=O)c4ccc(F)cc43)c2)nnc1-c1ccncn1 (centres unmarked) | 8680
22 | 21.5 | – | – | COc1ncc(Br)cc1CNC(=O)c1cccc(NCc2nnc(-c3ccncn3)n2C)c1 | 610
23 | 9.97 | – | – | Cc1cc(C)n(C)c(=O)c1CNC(=O)c1cccc(NCc2nnc(-c3ccncn3)n2C)c1 | 1700
24 | 26.9 | – | – | Cn1c(CNc2cccc(C(=O)NCc3ccccc3S(=O)(=O)N3CCCC3)c2)nnc1-c1ccncn1 | 2170
25 | 27.6 | – | – | Cn1c(CNc2cccc(C(=O)NCc3cccnc3Cl)c2)nnc1-c1ccncn1 | 506
26 | – | 61 | – | Cn1c(CNc2cccc(C(=O)NCc3cccc4cccnc34)c2)nnc1-c1ccncn1 [compound 24] | –
27 | – | 12 | – | COc1cccc([C@@H](C)NC(=O)c2cccc(NCc3nnc(-c4ccncn4)n3C)c2)c1 [compound 27] | –
28 | – | 15 | – | COc1cccc2c1CC[C@H]2NC(=O)c1cccc(NCc2nnc(-c3ccncn3)n2C)c1 [compound 30] | –
29 | – | 22 | – | Cn1c(CNc2cccc(C(=O)N[C@@H]3COCc4ccccc43)c2)nnc1-c1ccncn1 [compound 31] | –
30 | – | 22 | – | CC1Cc2cc(CNC(=O)c3cccc(NCc4nnc(-c5ccncn5)n4C)c3)ccc2O1 (centres unmarked) [compound 32] | –
31 | – | 10 | – | Cn1ccnc1[C@@H](NC(=O)c1cccc(NCc2nnc(-c3ccncc3)[nH]2)c1)C1CC1 [compound 34] | –
32 | – | 0.5 | – | Cc1cc2c(cc1CNC(=O)c1cccc(NCc3nnc(-c4ccncn4)n3C)c1)OCCO2 [compound 36] | –
33 | – | 0.79 | – | Cc1cccc2ncc(CNC(=O)c3cccc(NCc4nnc(-c5ccncn5)n4C)c3)n12 [compound 37] | –
34 | – | 1.1 | – | Cc1cccc(C(CO)NC(=O)c2cccc(NCc3nnc(-c4ccncn4)n3C)c2)c1 (centres unmarked) [compound 39] | –
35 | – | 1.7 | – | Cn1c(CNc2cccc(C(=O)NCc3ccc4nccn4c3)c2)nnc1-c1ccncn1 [compound 40] | –
36 | – | 1.8 | – | CCOc1ccc(C(CO)NC(=O)c2cccc(NCc3nnc(-c4ccncn4)n3C)c2)cn1 (centres unmarked) [compound 41] | –
37 | – | 2.1 | – | Cn1c(CNc2cccc(C(=O)NCc3ccc(-n4nccn4)cc3)c2)nnc1-c1ccncn1 [compound 42] | –
38 | – | 2.7 | – | Cn1c(CNc2cccc(C(=O)NCc3cccc(C#N)c3)c2)nnc1-c1ccncn1 [compound 43] | –
39 | – | 2.8 | – | Cc1ccc2ncc(CNC(=O)c3cccc(NCc4nnc(-c5ccncn5)n4C)c3)n2c1 [compound 44] | –
40 | – | 3 | – | Cc1ccn2c(CNC(=O)c3cccc(NCc4nnc(-c5ccncn5)n4C)c3)cnc2c1 [compound 45] | –

Row | IC50 (GRK2; [2]) [nM] | IC50 (GRK2; [3]) [nM] | IC50 (GRK2; Enzyme Assay A, ADPGlo (Example 8), read-out: A: Enzymatic GRK2: IC50 (nM) (Example 8)) | SMILES | IC50 [1] [nM]
41 | – | 3.3 | – | Cc1ccc(C(CO)NC(=O)c2cccc(NCc3nnc(-c4ccncn4)n3C)c2)cc1 (centres unmarked) [compound 46] | –
42 | – | 4.3 | – | Cn1c(CNc2cccc(C(=O)NCc3cnccc3Cl)c2)nnc1-c1ccncn1 [compound 47] | –
43 | – | 4.4 | – | COc1cccc(C(C)NC(=O)c2cccc(NCc3nnc(-c4ccncn4)n3C)c2)c1 (centres unmarked) [compound 48] | –
44 | – | 5.4 | – | COc1cccc(C(CO)NC(=O)c2cccc(NCc3nnc(-c4ccncn4)n3C)c2)c1 (centres unmarked) [compound 49] | –
45 | – | 5.5 | – | Cn1ccnc1C(NC(=O)c1cccc(NCc2nnc(-c3ccncc3)[nH]2)c1)C1CC1 (centres unmarked) [compound 50] | –
46 | – | 5.7 | – | Cn1nccc1CNC(=O)c1cccc(NCc2nnc(-c3ccncn3)n2C)c1 [compound 51] | –
47 | – | 5.7 | – | CC(NC(=O)c1cccc(NCc2nnc(-c3ccncn3)n2C)c1)c1c[nH]cn1 (centres unmarked) [compound 52] | –
48 | – | 6.2 | – | CCS(=O)(=O)c1ccc(CNC(=O)c2cccc(NCc3nnc(-c4ccncn4)n3C)c2)cc1 [compound 53] | –
49 | – | 6.3 | – | Cn1c(CNc2cccc(C(=O)NCc3ccc(C#N)cc3)c2)nnc1-c1ccncn1 [compound 54] | –
50 | – | 6.5 | – | Cn1c(CNc2cccc(C(=O)NCc3cnn(-c4ccccc4)n3)c2)nnc1-c1ccncn1 [compound 55] | –
51 | – | 7.3 | – | Cn1c(CNc2cccc(C(=O)NC3c4ccccc4CC3O)c2)nnc1-c1ccncn1 (centres unmarked) [compound 56] | –
52 | – | 9.4 | – | Cn1c(CNc2cccc(C(=O)NCc3ccc4c(c3)CCN4)c2)nnc1-c1ccncn1 [compound 57] | –
53 | – | 9.5 | – | Cn1c(CNc2cccc(C(=O)NCc3ccc(-n4ccnn4)cc3)c2)nnc1-c1ccncn1 [compound 58] | –
54 | – | 9.5 | – | Cn1cccc1CNC(=O)c1cccc(NCc2nnc(-c3ccncn3)n2C)c1 [compound 59] | –
55 | – | 9.6 | – | Cn1c(CNc2cccc(C(=O)NC3CCOc4cccnc43)c2)nnc1-c1ccncn1 (centres unmarked) [compound 60] | –
56 | – | 9.8 | – | Cc1nc(CNC(=O)c2cccc(NCc3nnc(-c4ccncn4)n3C)c2)cs1 [compound 61] | –
57 | – | 10 | – | Cn1c(CNc2cccc(C(=O)NC(CO)c3cc(F)ccc3F)c2)nnc1-c1ccncn1 (centres unmarked) [compound 62] | –
58 | – | – | 100 | Cc1csc(CNC(=O)c2cccc(NCc3nnc(-c4ccncn4)n3C)c2)n1 [drawing 283] | –
